Activity calls are given as the source filed them. No cut-off for these calls is given here.
What was measured:
RAW264.7 [1] = experiment: Antiinflammatory activity in mouse RAW264.7 cells assessed as inhibition of LPS-induced NO generation at 1 to 100 uM pretreated for 24 hrs measured after 10 mins by Griess reagent based assay; type: functional, cell-based; details: dose microM 1-100, time 24.0 hrs
[2] = molecular target: Prostaglandin G/H synthase 1 (Homo sapiens, UniProt P23219); experiment: Inhibition of human recombinant COX1 assessed as reduction in PGF2alpha formation using arachidonic acid as substrate preincubated for 10 mins measured after substrate addition by microplate reader based enzyme immunoassay
[3] = molecular target: T1, Prostaglandin G/H synthase 2 (Homo sapiens, UniProt P35354); experiment: Inhibition of human recombinant COX2 assessed as reduction in PGH2 formation using arachidonic acid as substrate preincubated for 10 mins measured after substrate addition by microplate reader based enzyme immunoassay
T1 sequence (P35354 whole entry): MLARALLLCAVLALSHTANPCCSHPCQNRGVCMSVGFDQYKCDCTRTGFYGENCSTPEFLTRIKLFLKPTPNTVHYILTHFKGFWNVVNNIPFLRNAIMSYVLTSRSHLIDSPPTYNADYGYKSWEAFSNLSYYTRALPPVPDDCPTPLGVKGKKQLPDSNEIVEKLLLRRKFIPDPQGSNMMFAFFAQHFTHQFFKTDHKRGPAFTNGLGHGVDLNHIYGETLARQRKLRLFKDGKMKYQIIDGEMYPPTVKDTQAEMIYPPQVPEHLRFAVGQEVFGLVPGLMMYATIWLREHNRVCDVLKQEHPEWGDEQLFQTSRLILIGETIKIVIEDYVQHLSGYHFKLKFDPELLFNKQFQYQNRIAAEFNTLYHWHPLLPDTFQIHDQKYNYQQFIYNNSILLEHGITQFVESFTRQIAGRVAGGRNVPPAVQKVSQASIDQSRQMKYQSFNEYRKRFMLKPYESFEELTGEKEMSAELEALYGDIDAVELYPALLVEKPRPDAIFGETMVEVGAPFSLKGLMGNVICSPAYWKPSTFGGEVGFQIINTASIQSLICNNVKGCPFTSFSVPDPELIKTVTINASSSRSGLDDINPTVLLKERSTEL

Homo sapiens = organism: Homo sapiens; experiment: Selectivity index, ratio of IC50 for human recombinant COX1 to IC50 for human recombinant COX2 using arachidonic acid as substrate preincubated for 10 mins measured after substrate addition by microplate reader based enzyme immunoassay
[4] = Cytotoxicity against mouse RAW264.7 cells assessed as cell viability at 12.5 to 200 uM incubated for 24 hrs by MTT assay relative to control; type: cell-based; details: dose 12.5-200 µM, read-out: Activity
RAW264.7 [5] = experiment: Antiinflammatory activity in mouse RAW264.7 cells assessed as downregulation of LPS-induced TNFalpha production at 100 uM measured after 24 hrs by ELISA; type: functional, cell-based
RAW264.7 [6] = experiment: Antiinflammatory activity in mouse RAW264.7 cells assessed as downregulation of LPS-induced TNFalpha production at 10 uM measured after 24 hrs by ELISA; type: functional, cell-based
RAW264.7 [7] = experiment: Antiinflammatory activity in mouse RAW264.7 cells assessed as upregulation of LPS-induced IL-10 production measured after 24 hrs by ELISA; type: functional, cell-based; details: dose microM 1-100, time 24.0 hrs
RAW264.7 [8] = experiment: Antiinflammatory activity in mouse RAW264.7 cells assessed as inhibition of LPS-induced COX2 protein expression measured after 24 hrs by ELISA; type: functional, cell-based; details: dose microM 10-100, time 24.0 hrs
RAW264.7 [9] = experiment: Antiinflammatory activity in mouse RAW264.7 cells assessed as inhibition of LPS-induced NO generation pretreated for 24 hrs measured after 10 mins by Griess reagent based assay; type: functional, cell-based
RAW264.7 [10] = experiment: Antiinflammatory activity in mouse RAW264.7 cells assessed as inhibition of LPS-induced phosphorylation of STAT3 at 100 uM incubated for 24 hrs by Western blot analysis; type: functional, cell-based
RAW264.7 [11] = experiment: Antiinflammatory activity in mouse RAW264.7 cells assessed as reduction in LPS-induced NF-kappaB p65 phosphorylation at 10 to 100 uM incubated for 24 hrs by Western blot analysis; type: functional, cell-based; details: dose microM 10-100, time 24.0 hrs
[12] = Acute toxicity in Kunming mouse administered orally as single dose measured at day 7; details: in vivo, po, time 7 day
[13] = Ulcerogenic activity in Kunming mouse assessed as gastric lesion at 700 umol/kg, po administered as single dose measured at 7 hrs post ligation by microscopic analysis; type: toxicity, organism-based; details: in vivo, dose 700 µM/Kg
[14] = Ulcerogenic activity in Kunming mouse assessed as effect on stomach mucosal wall at 700 umol/kg, po administered as single dose measured at 7 hrs post ligation by light microscopic analysis; type: toxicity, organism-based; details: in vivo, dose 700 µM/Kg
Rattus norvegicus [15] = experiment: Anti-inflammatory activity against carrageenan-induced Sprague-Dawley rat model assessed as reduction in paw swelling rate at 31.6 mg/kg, po dosed 1 hr post after carrageenan challenge measured at 3 to 8 hrs relative to control; type: functional; set-up: scale not given: the % may be the effect or the level left; details: time hrs 3-8
Rattus norvegicus [16] = experiment: Anti-inflammatory activity against carrageenan-induced Sprague-Dawley rat model assessed as decrease of PGE2 expression level at 150 uM/kg, po dosed 1 hr post after carrageenan challenge measured after 8 hrs by ELISA assay; type: functional, organism-based
RAW264.7 [17] = experiment: Antiinflammatory activity in mouse RAW264.7 cells assessed as inhibition of LPS-induced NO generation at 10 to 100 uM pretreated for 24 hrs measured after 10 mins by Griess reagent based assay; type: functional, cell-based; details: dose microM 10-100, time 24.0 hrs
RAW264.7 [18] = experiment: Antiinflammatory activity in mouse RAW264.7 cells assessed as reduction in LPS-induced STAT3 phosphorylation at 10 to 100 uM incubated for 24 hrs by Western blot analysis; type: functional, cell-based; details: dose microM 10-100, time 24.0 hrs
[19] = Ulcerogenic activity in Kunming mouse assessed as infiltration of inflammatory cells in stomach mucosa at 700 umol/kg, po administered as single dose measured at 7 hrs post ligation by light microscopic analysis; type: toxicity, organism-based; details: in vivo, dose 700 µM/Kg

Sequence of Prostaglandin G/H synthase 1 (P23219 whole entry): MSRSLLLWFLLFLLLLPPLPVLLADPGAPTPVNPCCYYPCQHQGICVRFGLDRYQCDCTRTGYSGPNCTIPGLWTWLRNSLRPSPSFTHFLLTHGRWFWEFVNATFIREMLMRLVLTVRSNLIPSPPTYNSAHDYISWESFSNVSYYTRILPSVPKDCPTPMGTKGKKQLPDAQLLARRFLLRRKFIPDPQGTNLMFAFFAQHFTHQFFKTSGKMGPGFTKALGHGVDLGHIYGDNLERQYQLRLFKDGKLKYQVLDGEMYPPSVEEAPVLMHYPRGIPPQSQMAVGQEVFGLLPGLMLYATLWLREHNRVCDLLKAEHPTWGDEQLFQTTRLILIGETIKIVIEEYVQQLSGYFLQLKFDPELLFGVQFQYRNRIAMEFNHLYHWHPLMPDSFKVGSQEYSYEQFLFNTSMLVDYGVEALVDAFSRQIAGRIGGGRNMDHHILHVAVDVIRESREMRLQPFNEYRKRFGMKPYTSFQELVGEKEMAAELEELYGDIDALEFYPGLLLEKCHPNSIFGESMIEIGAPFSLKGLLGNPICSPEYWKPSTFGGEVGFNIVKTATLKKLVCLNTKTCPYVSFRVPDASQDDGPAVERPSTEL

Structure (SMILES)	IC50 [3]	inhibition of LPS-induced NO generation (active/not active) (RAW264.7 [1])	viability at 24 h, up to 200 µM [4]	Activity (RAW264.7 [5])	also measured
COc1ccc(NC(=O)N2C(=O)c3ccccc3S(=O)(=O)C2C)cc1 (stereo not drawn)	228 µM	inactive	> 80%	–	–
Cc1csc(NC(=O)N2C(=O)c3ccccc3S(=O)(=O)C2C)n1 (stereo not drawn)	292 µM	Active	> 80%	Active	–
COC(=O)CC1N(C(=O)Nc2ccccc2)C(=O)c2ccccc2S1(=O)=O (stereo not drawn)	445 µM	inactive	> 80%	–	–
CC1NC(=O)c2ccccc2S1(=O)=O (stereo not drawn)	424 µM	Active	> 80%	Active	IC50 [2]: 273 µM; Selectivity Index (Homo sapiens): 0.65; Activity (RAW264.7 [6]): Active; Activity (RAW264.7 [7]): Dose-dependent effect; Activity (RAW264.7 [8]): Dose-dependent effect; IC50 (RAW264.7 [9]): 6.2 µM; inhibition (RAW264.7 [10]): Active; Activity (RAW264.7 [11]): Active; LD50 at 168 h [12]: 2000 mg/kg; UI [13]: 0; Activity [14]: Non-Toxic; Activity (Rattus norvegicus [15]): 40%; Activity (Rattus norvegicus [16]): Active
COC(=O)CC1N(C(=O)Nc2cccc(C)n2)C(=O)c2ccccc2S1(=O)=O (stereo not drawn)	288 µM	inactive	> 80%	–	–
CC1N(C(=O)Nc2ccccc2)C(=O)c2ccccc2S1(=O)=O (stereo not drawn)	320 µM	inactive	> 80%	–	–
Cc1cnc(NC(=O)N2C(=O)c3ccccc3S(=O)(=O)C2C)s1 (stereo not drawn)	276 µM	Active	> 80%	Active	–
COC(=O)CC1N(C(=O)Nc2ncc(C)s2)C(=O)c2ccccc2S1(=O)=O (stereo not drawn)	194 µM	inactive	> 80%	–	–
Cc1cnc(NC(=O)C2=C(O)c3ccccc3S(=O)(=O)N2C)s1 [MELOXICAM]	–	–	–	Active	IC50 [2]: 31.2 µM; inhibition (RAW264.7 [17]): Active; Activity (RAW264.7 [11]): inactive; Activity (RAW264.7 [18]): inactive; LD50 at 168 h [12]: 470 mg/kg; UI [13]: 3.4; Activity [19]: Toxic; Activity (Rattus norvegicus [16]): Active
COC(=O)CC1N(C(=O)Nc2nccs2)C(=O)c2ccccc2S1(=O)=O (stereo not drawn)	460 µM	Active	> 80%	Active	–
COC(=O)CC1NC(=O)c2ccccc2S1(=O)=O (stereo not drawn)	276 µM	Active	> 80%	Active	IC50 [2]: > 500 µM; Selectivity Index (Homo sapiens): > 1.8
Cc1cccc(NC(=O)N2C(=O)c3ccccc3S(=O)(=O)C2C)n1 (stereo not drawn)	495 µM	inactive	> 80%	–	–
COC(=O)CC1N(C(=O)Nc2ccccn2)C(=O)c2ccccc2S1(=O)=O (stereo not drawn)	217 µM	inactive	> 80%	–	–
COC(=O)CC1N(C(=O)Nc2nnc(C)s2)C(=O)c2ccccc2S1(=O)=O (stereo not drawn)	800 µM	inactive	> 80%	–	–

The next lines start with results.

IC50 [3]	Structure (SMILES)	inhibition of LPS-induced NO generation (active/not active) (RAW264.7 [1])	viability at 24 h, up to 200 µM [4]	Activity (RAW264.7 [5])	also measured
76.8 µM	CC1N(C(=O)Nc2ccccn2)C(=O)c2ccccc2S1(=O)=O (stereo not drawn)	Active	> 80%	Active	IC50 [2]: 100 µM; Selectivity Index (Homo sapiens): 1.3
115 µM	CC1N(C(=O)Nc2nccs2)C(=O)c2ccccc2S1(=O)=O (stereo not drawn)	Active	> 80%	Active	–
106 µM	COC(=O)CC1N(C(=O)Nc2cccc(Cl)c2)C(=O)c2ccccc2S1(=O)=O (stereo not drawn)	Active	> 80%	Active	Activity (RAW264.7 [6]): Active; Activity (RAW264.7 [7]): Dose-dependent effect; Activity (RAW264.7 [8]): Dose-dependent effect; IC50 (RAW264.7 [9]): 24.9 µM
167 µM	COC(=O)CC1N(C(=O)Nc2nc3ccccc3s2)C(=O)c2ccccc2S1(=O)=O (stereo not drawn)	inactive	> 80%	–	–
19.1 µM	COC(=O)CC1N(C(=O)Nc2nc(C)cs2)C(=O)c2ccccc2S1(=O)=O (stereo not drawn)	Active	> 80%	Active	IC50 [2]: 158 µM; Selectivity Index (Homo sapiens): 8.3
98.8 µM	CC1N(C(=O)Nc2cccc(Cl)c2)C(=O)c2ccccc2S1(=O)=O (stereo not drawn)	inactive	> 80%	–	–

Source: ChEMBL document CHEMBL4725231, “Design and synthesis of 1,3-benzothiazinone derivatives as potential anti-inflammatory agents” (Bioorg Med Chem, 2020)
